Key:
[1] = system: neuroblastoma SKNAS cells; test: Monolayer cell growth, neuroblastoma; type: cell-based; settings: SK-N-AS, 72 hours continuous presence
Text: FIGS. 8A-E show E9RP inhibits ESFT cell growth. In FIGS. 8A and 8B, E9RP is the peptide region of RHA (SEQ ID NO:29) fused to the Penetratin peptide (from the Antennapedia homeodomain; SEQ ID NO:34) and contains amino-terminal fluorescein (FITC). […] Neither lipids nor electricity were used for transduction of peptides into cells. Confocal microscopy identified peptide throughout cells with nuclear uptake. Nuclear uptake was confirmed by DAPI staining. […] Cell lines were placed in 96-well plates with either vehicle alone (●), or E9RP (10 μM) on days 0, 3 and 5 (▴). No lipid or other transfection method was utilized. This represents two experiments with similar results. FIG. 8D depicts dose response of ESFT 1 to either wild-type or single amino-acid mutant peptides. (▪) wild-type E9RP, (E9R (SEQ ID NO:29) fused to the Penetratin peptide (SEQ ID NO:34)), (▾)(E9RP (P2A peptide (SEQ ID NO:30) fused to the Penetratin peptide (SEQ ID NO:34)), (▴)E9RP (D5A peptide (SEQ ID NO:31) fused to the Penetratin peptide (SEQ ID NO:34)). Growth normalized to treating cells with the 16 aa Antp sequence alone (SEQ ID NO:34). FIG. 8E is a comparison of wild-type versus mutant peptides in ESFT and NB cells.
In FIG. 13A, recombinant EWS-FLI1 was treated with NSC635437 for 30 minutes. GST-RHA (630-1020) was added and the complexes were then precipitated with antibody to EWS-FLI1 and Protein G beads. Resolved complexes showing the immunoprecipitated complex control without compound are in lanes 3 (0.1% DMSO) and 5 (0.01% DMSO). […] ESFT TC32 (◯) and neuroblastoma SK-N-AS (▪) were grown for 72 hours in the continuous presence of NSC635437. Cells were incubated in MTT reagent for 4 hours and the dried precipitate was dissolved isopropanol and the absorbance read at 570 nm. Each cell line was standardized to the growth of the DMSO control.
FIG. 30 provides data to show E9R peptide prevents EWS-FLI1 binding to RHA with specific detrimental effects upon ESFT growth and transformation. […] Scale bar equals 20 μm. […] Only expression of EGFP-E9R in TC71 reduced anchorage independent growth. […] Scale bar equals 20 μm.

[2] = system: ESFT cell line CHP-100; test: CHP-100 tumors in nude mice treated with YK-4-275; type: in vivo; settings: treated for 4 days when tumors palpable
Protocol: Nude mice were inoculated with ESFT cell line CHP-100. When tumors were palpable, animals were treated with YK-4-275 (NSC635437) for 4 days. Curves show tumor volumes over time.

[3] = system: cyclin D levels in four non-EWS-FLI1 containing cell lines; test: Cyclin D immunoblot, non-EWS-FLI1 containing cell lines; type: cell-based; settings: 10 μM overnight
[4] = system: EWS-FLI1 responsive NROB1 promoter; test: Luciferase reporter assay of EWS-FLI1 responsive NROB1 promoter in COS7 cells; type: cell-based; settings: 3 and 10 μM, 18 hours
Protocol: (§1) FIG. 32 provides data showing YK-4-279 reduces EWS-FLI1 functional activity. FIG. 32A concerns TC32 cells that were treated with YK-4-279 and resolved protein lysates and that were immunoblotted for co-precipitated RHA (top), EWS-FLI1 (middle), or total RHA (bottom).
EGFP-E9R fusion constructs prepared as published (Frangioni, J. V. & Neel, B. G. Use of a general purpose mammalian expression vector for studying intracellular protein targeting: identification of critical residues in the nuclear lamin A/C nuclear localization signal. J Cell Sci 105 (Pt 2), 481-488 (1993)). We transiently transfect the NR0B131 luciferase reporter and full-length EWS-FLI1 into COS-7 cells with Fugene-6 (Roche) and luciferase assay performed per manufacturer's protocol (Dual Luciferase Kit, Promega). Six hours following transfection, cells were treated with either 3 or 10 μM YK-4-279. Cell lysates luciferase activity levels were standardized to renilla activity from a non-affected promoter and plotted as relative luciferase activity (RLA).

[5] = system: panel of ESFT cell lines; test: Cell growth (WST), panel of ESFT cell lines; type: cell-based; settings: 72 h, 3 days
Protocol: (§2) FIG. 33 provides data showing YK-4-279 is potent and specific inhibitor of ESFT. […] Cell number was measured by MTT or WST reduction after seven days in culture. […] FIG. 33D cell lines expressing EWS-FLI1 compared to non-EWS-FLI1 malignant cell lines following 3 days in culture to establish the IC50 using WST assay. […] Graph plots level of fluorescence in treated divided by untreated lysate. […] Scale bar equals 200 μm.

[6] = system: non-EWS-FLI1 cancer cell lines and non-transformed cell lines (HFK, HEC, HEK293); test: Caspase-3 activity, non-EWS-FLI1 cancer and non-transformed cell lines; type: cell-based; settings: 10 μM, 24 hours
Protocol: as §2
Cells were treated for 24 hours with 10 μM YK-4-279. The Caspase-3 substrate DEVD-AMC was incubated with equal amounts of protein lysate and fluorescence from cleaved substrate measured in a fluorimeter. TC32 and non-transformed cells HEK-293, HFK, and HEC were treated for 6 hours with high dose (50 μM) YK-4-279. DAPI stained cells were photographed at 600× using inverted fluorescence microscope.

[7] = system: NFκB responsive promoter; test: NFκB responsive reporter in COS7 cells activated with PMA; type: cell-based; settings: after PMA
Protocol: FIG. 38A provides data showing COST cells transfected with an NFκB reporter construct followed by stimulation with PMA. Cells were treated with YK-4-279 following PMA treatment. Cell lysates were analyzed for NFκB induced luciferase activity as standardized to LTR activated renilla luciferase.

[8] = system: EWS-FLI1; test: Fluorescence polarization assay, FITC-E9R displacement; type: binding; settings: 30 μM YK-4-279; 3.2 μM FITC-E9R
Protocol: The assay was performed in 20 mM Tris, 500 mM NaCl, 0.67 M imidazole, pH 7.4. The fluorescence polarization was analyzed in a QuantaMaster fluorimeter (Photon Technology International, Ford, West Sussex, UK) equipped with polymer sheet polarizers at an excitation wavelength of 495 nm and emission wavelength of 517 nm. […] (3.2 μM, as determined from saturated binding curve) with the same buffer and instrumental settings as described above.

[9] = system: EWS-FLI1; test: SPR displacement assay of E9R from EWS-FLI1; type: binding
Text: FIG. 31 provides data showing a small molecule binding to EWS-FLI1 and displaces E9R from EWS-FLI1. […] Aromatic functionalization produced YK-4-279 a para-methoxy derivative of NSC635437. […] A FLI1 antibody complexed EWS-FLI1 and precipitated it from the solution.
An aromatic optimization strategy was used to design analogs to improve upon the activity of NSC635437.

[10] = system: non-transformed HEK293 cells; test: Cell growth, HEK293; type: cell-based; settings: TC32 vs HEK293
Protocol: as §2

[11] = biological target: T1, EWS-FLI1 and RHA in TC32 cells (Homo sapiens, UniProt Q01543+Q01844); test: Co-precipitation of RHA with EWS-FLI1 from treated TC32 cells; type: cell-based
T1 construct: endogenous in cells; host or cells: TC32 (ESFT cell line)
Protocol: as §1
Protein lysates and immunoprecipitations were performed as previously published (Uren et al (2005)). Recombinant GST-RHA (647-1075) was prepared from crude bacterial extracts without further purification.

T1 sequence (Q01844+Q01543 fused): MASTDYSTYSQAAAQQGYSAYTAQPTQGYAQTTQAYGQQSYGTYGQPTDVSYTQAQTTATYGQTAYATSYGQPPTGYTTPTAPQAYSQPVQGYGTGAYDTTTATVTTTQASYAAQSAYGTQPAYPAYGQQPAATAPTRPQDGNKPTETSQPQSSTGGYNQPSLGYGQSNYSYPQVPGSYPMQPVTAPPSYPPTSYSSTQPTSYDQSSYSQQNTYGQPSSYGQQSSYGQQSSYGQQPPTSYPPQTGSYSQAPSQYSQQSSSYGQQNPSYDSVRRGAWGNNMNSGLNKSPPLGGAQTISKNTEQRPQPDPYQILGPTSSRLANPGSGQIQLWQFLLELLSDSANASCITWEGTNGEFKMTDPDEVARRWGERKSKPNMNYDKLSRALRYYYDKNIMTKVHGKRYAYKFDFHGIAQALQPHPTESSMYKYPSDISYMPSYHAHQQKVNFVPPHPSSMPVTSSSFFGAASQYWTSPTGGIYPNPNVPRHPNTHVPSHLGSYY

| Structure (SMILES) | cell growth (MTT) [1] | tumor growth [2] | melting point | cyclin D levels [3] | NROB1 promoter activity [4] | IC50 [5] | apoptosis (caspase-3 activation) [6] | NFκB responsive promoter activity [7] | displacement of FITC-E9R from EWS-FLI1 [8] | binding of E9R to EWS-FLI1 ([9]; 32 μM E9R with 10 μM YK-4-279) | binding of E9R to EWS-FLI1 ([9]; 64 μM E9R with 10 μM YK-4-279) | difference in IC50, ESFT cells compared to HEK293 [10] | EWS-FLI1 and RHA protein levels [11] | EWS-FLI1/RHA association in treated ESFT cells ([11]; by 10 μM) |
| --- | --- | --- | --- | --- | --- | --- | --- | --- | --- | --- | --- | --- | --- | --- |
| O=C(CC1(O)C(=O)Nc2c(Cl)ccc(Cl)c21)c1ccc(Cl)cc1 (centres unmarked) [NSC635437, 4,7-Dichloro-3-[2-(4-chlorophenyl)-2-oxoethyl]-3-hydroxyl-1,3-dihydro-2H-indol-2-one] | not neuroblastoma cell growth | inhibition of tumor growth | 194 to 196 °C | – | – | – | – | – | – | – | – | – | – | – |
| COc1ccc(C(=O)CC2(O)C(=O)Nc3c(Cl)ccc(Cl)c32)cc1 (centres unmarked) [YK-4-279, 4,7-Dichloro-3-hydroxy-3-[2-(4-methoxyphenyl)-2-oxoethyl]-1,3-dihydro-2H-indol-2-one] | – | – | – | did not affect cyclin D levels | dose-dependent decrease in promoter activity | 500 to 2000 nM | none | did not affect the NFκB responsive promoter | complete displacement | 5 R.U. | 7 R.U. | 10 fold | did not directly affect EWSFLI1 nor RHA levels | dissociation of EWS-FLI1 from RHA |

— US9045415B2, “Targeting of EWS-FLI1 as anti-tumor therapy” (Georgetown University, priority 2006, dated 2015)
